Measurements from US10294202B2, “Pyrrolidinones as herbicides” (FMC Corporation, priority 2013, dated 2019).

How the values were obtained:
[1] = system: oat, wild; assay: Test C pre-/postemergence herbicide test; format: in vivo, Avena fatua; details: Postemergence
Summary of the method: (§1)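 Herbicidal effect was judged by eye 13 to 15 days after treatment in the greenhouse, using a 0–100 scale against controls. Chemicals in a non-phytotoxic solvent with surfactant were sprayed onto planted loam/sand soil or onto plants 2 to 18 cm tall in a peat-based growing medium.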

[2] = system: corn; assay: Test A pre-/postemergence herbicide test; format: in vivo, Zea mays; details: Postemergence
Summary of the method: (§2)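 Both application timings used compounds in a non-phytotoxic solvent plus surfactant. Pre-emergence: soil sprayed directly after seeding into loam/sand. Post-emergence: foliage of 2–10 cm seedlings (1–2 leaves) sprayed. Injury rated ~10 days later, 0–100.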

[3] = system: galium; assay: Test C pre-/postemergence herbicide test; format: in vivo, Galium aparine
Summary of the method: as §1

[4] = system: ryegrass, Italian; assay: Test C pre-/postemergence herbicide test; format: in vivo, Lolium multiflorum
Summary of the method: as §1

[5] = system: sedge, umbrella; assay: Test B flooded paddy test; format: in vivo, Cyperus difformis; details: 500 g ai/ha, Flood; scale of 0 to 100 where 0 is no effect and 100 is complete control
Summary of the method: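 In-water application to pots flooded 3 cm deep, plants at 2-leaf stage. Held in greenhouse 13–15 days at constant flood depth. Scored 0–100 by eye against controls.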

[6] = system: ragweed; assay: Test C pre-/postemergence herbicide test; format: in vivo, Ambrosia elatior
Summary of the method: as §1

[7] = system: barnyardgrass; assay: Test A pre-/postemergence herbicide test; format: in vivo, Echinochloa crus-galli
Summary of the method: as §2

[8] = system: soybean; assay: Test C pre-/postemergence herbicide test; format: in vivo, Glycine max
Summary of the method: as §1

[9] = system: foxtail, giant; assay: Test C pre-/postemergence herbicide test; format: in vivo, Setaria faberii
Summary of the method: as §1

[10] = system: pigweed; assay: Test A pre-/postemergence herbicide test; format: in vivo, Amaranthus retroflexus
Summary of the method: as §2

[11] = system: corn; assay: Test C pre-/postemergence herbicide test; format: in vivo, Zea mays
Summary of the method: as §1

[12] = 31 g ai/ha, scale 0 to 100 (0 no effect, 100 complete control)
[13] = 62 g ai/ha, scale 0 (no effect) to 100 (complete control)
[14] = 125 g ai/ha, scale 0 to 100 (0 no effect, 100 complete control)
[15] = 125 g ai/ha, 0 to 100 scale, 0 is no effect, 100 is complete control
[16] = Postemergence, 31 g ai/ha, scale 0 to 100 (0 no effect, 100 complete control)
[17] = Postemergence, 62 g ai/ha, scale 0 (no effect) to 100 (complete control)
[18] = Postemergence, 125 g ai/ha, scale 0 to 100 (0 no effect, 100 complete control)
[19] = Postemergence, 250 g ai/ha, scale 0 to 100 (0 no effect, 100 complete control)
[20] = Preemergence, 31 g ai/ha, scale 0 to 100, 0 is no effect and 100 is complete control
[21] = Preemergence, 62 g ai/ha, scale 0 to 100 (0 no effect, 100 complete control)
[22] = Preemergence, 125 g ai/ha, scale 0 to 100 (0 no effect, 100 complete control)
[23] = 125 g ai/ha, visual rating, 0 to 100 scale, 0 no effect, 100 complete control, approximately 10 days, preemergence
[24] = Postemergence, 125 g ai/ha, 0 to 100 scale, 0 is no effect, 100 is complete control
[25] = preemergence, 500 g ai/ha, 0 to 100 scale, 0 is no effect and 100 is complete control
[26] = Postemergence, 16 g ai/ha, scale 0 to 100 (0 no effect, 100 complete control)
[27] = Preemergence, 16 g ai/ha, scale 0 to 100
[28] = Postemergence, 500 g ai/ha, 0 to 100 scale (0 no effect, 100 complete control)
[29] = Preemergence, 125 g ai/ha, 0 to 100 scale where 0 is no effect and 100 is complete control

**Q.** What does the source list for `O=C1NCC(c2ccc(C(F)(F)F)cc2)C1C(=O)Nc1ccc(F)c(F)c1F` (stereo not drawn) [Compound 232]?
**A.** Plant response rating, Oat, Wild [1, 12]: 0; Plant response rating, Oat, Wild [1, 13]: 0; Plant response rating, Oat, Wild [1, 14]: 0; Plant response rating, Oat, Wild ([1]; 250 g ai/ha, scale 0 to 100 (0 no effect, 100 complete control)): 30; Plant response rating, Corn [2, 15]: 80; Corn plant response rating (0 to 100 scale, 0 is no effect, 100 is complete control) ([2]; 500 g ai/ha): 80; Plant response rating, Galium [3, 16]: 75; Plant response rating, Galium [3, 17]: 80; Plant response rating, Galium [3, 18]: 80; Plant response rating, Galium [3, 19]: 80; Galium plant response rating [3, 20]: 85; Galium plant response rating [3, 21]: 85; Plant response rating, Galium [3, 22]: 90; Plant response rating (scale of 0 to 100), Galium ([3]; Preemergence, 250 g ai/ha): 90; Plant response rating, Ryegrass, Italian [4, 16]: 0; Plant response rating, Ryegrass, Italian [4, 17]: 0; Plant response rating, Ryegrass, Italian [4, 18]: 0; Plant response rating, Ryegrass, Italian [4, 19]: 40; Ryegrass, Italian plant response rating [4, 20]: 0; Ryegrass, Italian plant response rating [4, 21]: 0; Plant response rating, Ryegrass, Italian [4, 22]: 20; Plant response rating (scale of 0 to 100), Ryegrass, Italian ([4]; Preemergence, 250 g ai/ha): 40; Plant response rating, Sedge, Umbrella [5]: 0; Plant response rating, Ragweed [6, 16]: 75; Plant response rating, Ragweed [6, 17]: 80; Plant response rating, Ragweed [6, 18]: 85; Plant response rating, Ragweed [6, 19]: 75; Ragweed plant response rating [6, 20]: 65; Ragweed plant response rating [6, 21]: 85; Plant response rating, Ragweed [6, 22]: 85; Plant response rating (scale of 0 to 100), Ragweed ([6]; Preemergence, 250 g ai/ha): 90; Plant response rating, Barnyardgrass [7, 23]: 90; Plant response rating, Barnyardgrass [7, 24]: 80; Barnyardgrass plant response rating (0 to 100 scale, 0 is no effect, 100 is complete control) ([7]; Postemergence, 500 g ai/ha): 90; Plant response rating, Barnyardgrass [7, 25]: 90; Plant response rating, Soybean [8, 16]: 0; Plant response rating, Soybean [8, 17]: 10; Plant response rating, Soybean [8, 18]: 10; Plant response rating, Soybean [8, 19]: 20; Soybean plant response rating [8, 20]: 0; Soybean plant response rating [8, 21]: 0; Plant response rating, Soybean [8, 22]: 0; Plant response rating (scale of 0 to 100), Soybean ([8]; Preemergence, 250 g ai/ha): 5; Plant response rating, Foxtail, Giant [9, 16]: 0; Plant response rating, Foxtail, Giant [9, 17]: 5; Plant response rating, Foxtail, Giant [9, 18]: 15; Plant response rating, Foxtail, Giant [9, 19]: 70; Foxtail, Giant plant response rating [9, 20]: 85; Foxtail, Giant plant response rating [9, 21]: 90; Plant response rating, Foxtail, Giant [9, 22]: 90; Plant response rating (scale of 0 to 100), Foxtail, Giant ([9]; Preemergence, 250 g ai/ha): 95; Plant response rating, Pigweed [10, 23]: 50; Plant response rating, Pigweed [10, 24]: 80; Pigweed plant response rating (0 to 100 scale, 0 is no effect, 100 is complete control) ([10]; Postemergence, 500 g ai/ha): 90; Plant response rating, Pigweed [10, 25]: 60; Plant response rating, Corn [11, 16]: 0; Plant response rating, Corn [11, 17]: 0; Plant response rating, Corn [11, 18]: 0; Plant response rating, Corn [11, 19]: 0; Corn plant response rating [11, 20]: 0; Corn plant response rating [11, 21]: 35; Plant response rating, Corn [11, 22]: 70; Plant response rating (scale of 0 to 100), Corn ([11]; Preemergence, 250 g ai/ha): 75

**Q.** What does the source list for `CN1CC(c2cccc(C(F)(F)F)c2)C(C(=O)Nc2ccccc2F)C1=O` (stereo not drawn) [Compound 277]?
**A.** Plant response rating, Oat, Wild ([1]; 16 g ai/ha, scale 0 to 100 (0 no effect, 100 complete control)): 0; Plant response rating, Oat, Wild [1, 12]: 0; Plant response rating, Oat, Wild [1, 13]: 0; Plant response rating, Oat, Wild [1, 14]: 5; Plant response rating, Corn [2, 15]: 90; Plant response rating, Corn ([2]; 500 g ai/ha, 0 to 100 scale (0 no effect, 100 complete control)): 90; Plant response rating, Galium [3, 26]: 40; Plant response rating, Galium [3, 16]: 45; Plant response rating, Galium [3, 17]: 60; Plant response rating, Galium [3, 18]: 75; Galium plant response rating [3, 20]: 100; Galium plant response rating [3, 21]: 90; Plant response rating, Galium [3, 22]: 100; Plant response rating, Galium [3, 27]: 0; Plant response rating, Ryegrass, Italian [4, 26]: 0; Plant response rating, Ryegrass, Italian [4, 16]: 0; Plant response rating, Ryegrass, Italian [4, 17]: 5; Plant response rating, Ryegrass, Italian [4, 18]: 35; Ryegrass, Italian plant response rating [4, 20]: 40; Ryegrass, Italian plant response rating [4, 21]: 35; Plant response rating, Ryegrass, Italian [4, 22]: 40; Plant response rating, Ryegrass, Italian [4, 27]: 30; Plant response rating, Sedge, Umbrella [5]: 0; Plant response rating, Ragweed [6, 26]: 10; Plant response rating, Ragweed [6, 16]: 40; Plant response rating, Ragweed [6, 17]: 35; Plant response rating, Ragweed [6, 18]: 40; Ragweed plant response rating [6, 20]: 0; Ragweed plant response rating [6, 21]: 0; Plant response rating, Ragweed [6, 22]: 40; Plant response rating, Ragweed [6, 27]: 0; Plant response rating, Barnyardgrass [7, 24]: 90; Plant response rating, Barnyardgrass [7, 28]: 90; Plant response rating, Barnyardgrass [7, 29]: 90; Plant response rating, Barnyardgrass [7, 25]: 90; Plant response rating, Soybean [8, 26]: 0; Plant response rating, Soybean [8, 16]: 0; Plant response rating, Soybean [8, 17]: 0; Plant response rating, Soybean [8, 18]: 0; Soybean plant response rating [8, 20]: 0; Soybean plant response rating [8, 21]: 0; Plant response rating, Soybean [8, 22]: 5; Plant response rating, Soybean [8, 27]: 0; Plant response rating, Foxtail, Giant [9, 26]: 0; Plant response rating, Foxtail, Giant [9, 16]: 10; Plant response rating, Foxtail, Giant [9, 17]: 85; Plant response rating, Foxtail, Giant [9, 18]: 85; Foxtail, Giant plant response rating [9, 20]: 98; Foxtail, Giant plant response rating [9, 21]: 98; Plant response rating, Foxtail, Giant [9, 22]: 98; Plant response rating, Foxtail, Giant [9, 27]: 95; Plant response rating, Pigweed ([10]; Postemergence, 125 g ai/ha, visual rating on 0 to 100 scale (0 no effect, 100 complete control), approx. 10 days): 30; Plant response rating, Pigweed [10, 28]: 30; Plant response rating, Pigweed [10, 29]: 20; Plant response rating, Pigweed [10, 25]: 30; Plant response rating, Corn [11, 26]: 0; Plant response rating, Corn [11, 16]: 0; Plant response rating, Corn [11, 17]: 20; Plant response rating, Corn [11, 18]: 10; Corn plant response rating [11, 20]: 25; Corn plant response rating [11, 21]: 85; Plant response rating, Corn [11, 22]: 90; Plant response rating, Corn [11, 27]: 0
